# Experimental data reported in patent publication US20240390298A1, “CYCLOHEXYL BETA-HYDROXY ALKYL AMINES AND MEDICAL USES THEREOF” (ATROGI AB, priority 2021, published 2024).
# Counter-ions that a name gives are not always drawn.
# Assays:
# Type in all cases: cell-based
# L6-myotubes [1] = test: Glucose uptake in differentiated L6-myotubes (3H-2-deoxyglucose), compared to isoproterenol; conditions: agonist 1×10^−5 M, 50 nM 3H-2-deoxyglucose
# Summary of the method: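 Serum-starved differentiated L6 myotubes stimulated with agonist at 1×10^−5 M for 1 h 40 min, re-dosed in glucose-free medium for 20 min, then given 50 nM ^3H-2-deoxyglucose for 10 min. Uptake read by β-counting of NaOH lysates; activity expressed relative to isoproterenol.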
# L6-myotubes [2] = test: Measurement of intracellular cAMP levels in differentiated L6 cells (alpha screen cAMP kit), compared to isoproterenol; conditions: agonist 1×10^−5 M, 15 min; for Emax at 10 µM: Rattus norvegicus, L6, 0.25 h, read-out: Biological example 2: intracellular cAMP levels, activity compared to that of isoproterenol
# Summary of the method: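 L6 myoblasts were differentiated into myotubes over 7 days in 2% FBS, then serum-starved overnight. Agonist at 1×10^−5 M final was applied for 15 min in HBSS with 1% BSA, 5 mM HEPES and 1 mM IBMX, pH 7.4. After ethanol extraction and lysis, cAMP was quantified by AlphaScreen, with activity expressed relative to isoproterenol.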
# L6-myotubes [3] = test: Glucose uptake in L6-myotubes in the presence of the β2-antagonist ICI-118,551; conditions: differentiated L6-myotubes; compound 1×10^−5 M; ICI-118,551 1×10^−5 M
# Protocol: L6-myoblasts were grown in Dulbecco's Modified Eagle's Medium (DMEM) containing 1 g/L glucose supplemented with 10% fetal bovine serum, 2 mM L-Glutamine, 50 U/mL penicillin, 50 μg/mL streptomycin and 10 mM HEPES. Cells were plated at 1×10^5 cells per mL in 24-well plates. After reaching 90% confluence the cells were grown in medium containing 2% FBS for 7 days where upon cells differentiated into myotubes.
# Differentiated L6-myotubes were serum-starved overnight in medium containing 0.5% fatty-acid free BSA and were incubated with the β2-adrenergic receptor antagonist ICI-118,551 at a final concentration of 1×10^−5 M for 30 min. The cells were stimulated with a compound of the invention, at a final concentration of 1×10^−5 M. After 1 h 40 min the cells were washed twice with warm, glucose free medium or PBS and additional portions of the compound of the invention and the antagonist were added. After 20 min the cells were exposed to 50 nM ^3H-2-deoxyglucose for 10 min before washed with ice cold glucose free medium or PBS three times and lysed with 0.2 M NaOH, 400 μL/well, for 1 h at 60° C. The cell lysate was mixed with 4 mL scintillation buffer (Emulsifier Safe, Perkin Elmer) and the radioactivity was detected in a β-counter (Tri-Carb 4810TR, Perkin Elmer). The activity for each compound is compared to that of isoproterenol.
Structure (SMILES),"Biological example 1: glucose uptake, activity compared to that of isoproterenol (L6-myotubes [1])",Emax at 10 µM (L6-myotubes [2]) [%],"Biological example 3: glucose uptake in the presence of the β2-antagonist ICI-118,551, activity compared to that of isoproterenol (L6-myotubes [3])","Biological example 2: intracellular cAMP levels, activity compared to that of isoproterenol (L6-myotubes [2])"
"CC(C)(C[C@H]1CC[C@H](N)CC1)NC[C@H](O)c1cncc(F)c1 [Example 85, (R)-2-((1-((1r,4R)-4-Aminocyclohexyl)-2-methylpropan-2-yl)amino)-1-(5-fluoropyridin-3-yl)ethan-1-ol]",+ + +,< 25,− (less than 25%),
"COC(=O)[C@H]1CC[C@H](CC(C)(C)NC[C@H](O)c2cccc(F)c2)CC1 [Example 107, Methyl (1R,4r)-4-(2-(((R)-2-(3-Fluorophenyl)-2-hydroxyethyl)amino)-2-methylpropyl)cyclohexane-1-carboxylate]",+ + +,< 25,− (less than 25%),
"COC(=O)[C@H]1CC[C@@H](CCC(C)(C)NC[C@H](O)c2cncc(F)c2)CC1 [Example 112, Methyl (1S,4s)-4-(3-(((R)-2-(5-fluoropyridin-3-yl)-2-hydroxyethyl)amino)-3-methylbutyl)cyclohexane-1-carboxylate]",+ + +,25 to 50,− (less than 25%),
"COC(=O)[C@H]1CC[C@H](CCC(C)(C)NC[C@H](O)c2cncc(F)c2)CC1 [Example 116, Methyl (1R,4r)-4-(3-(((R)-2-(5-fluoropyridin-3-yl)-2-hydroxyethyl)amino)-3-methylbutyl)cyclohexane-1-carboxylate]",+ + +,< 25,− (less than 25%),
"CN(C)S(=O)(=O)[C@H]1CC[C@H](CC(C)(C)NC[C@H](O)c2cncc(F)c2)CC1 [Example 187, (1R,4r)-4-(2-(((R)-2-(5-Fluoropyridin-3-yl)-2-hydroxyethyl)amino)-2-methylpropyl)-N,N-dimethylcyclohexane-1-sulfonamide dihydrochloride]",+ + +,25 to 50,,
"CN(C)S(=O)(=O)[C@H]1CC[C@@H](CC(C)(C)NC[C@H](O)c2cccc(F)c2)CC1.Cl [Example 188, (1S,4s)-4-(2-(((R)-2-(3-fluorophenyl)-2-hydroxyethyl)amino)-2-methyl-propyl)-N,N-dimethylcyclohexane-1-sulfonamide hydrochloride]",+ + +,25 to 50,,
"CN(C)S(=O)(=O)[C@H]1CC[C@@H](CC(C)(C)NC[C@H](O)c2cncc(F)c2)CC1 [Example 189, (1S,4s)-4-(2-(((R)-2-(5-Fluoropyridin-3-yl)-2-hydroxyethyl)amino)-2-methylpropyl)-N,N-dimethylcyclohexane-1-sulfonamide dihydrochloride]",+ + +,,,+ +
"CNS(=O)(=O)[C@H]1CC[C@H](CC(C)(C)NC[C@H](O)c2cccc(F)c2)CC1 [Example 190, (1R,4r)-4-(2-(((R)-2-(3-Fluorophenyl)-2-hydroxyethyl)amino)-2-methyl-propyl)-N-methylcyclohexane-1-sulfonamide hydrochloride]",+ + +,25 to 50,,
"CNS(=O)(=O)[C@H]1CC[C@H](CC(C)(C)NC[C@H](O)c2cncc(F)c2)CC1 [Example 191, (1R,4r)-4-(2-(((R)-2-(5-Fluoropyridin-3-yl)-2-hydroxyethyl)amino)-2-methylpropyl)-N-methylcyclohexane-1-sulfonamide dihydrochloride]",+ +,< 25,,
"CNS(=O)(=O)[C@H]1CC[C@@H](CC(C)(C)NC[C@H](O)c2cccc(F)c2)CC1.Cl [Example 192, (1S,4s)-4-(2-(((R)-2-(3-Fluorophenyl)-2-hydroxyethyl)amino)-2-methyl-propyl)-N-methylcyclohexane-1-sulfonamide hydrochloride]",+ + +,< 25,,
"CNS(=O)(=O)[C@H]1CC[C@@H](CC(C)(C)NC[C@H](O)c2cncc(F)c2)CC1 [Example 193, (1S,4s)-4-(2-(((R)-2-(5-Fluoropyridin-3-yl)-2-hydroxyethyl)amino)-2-methylpropyl)-N-methylcyclohexane-1-sulfonamide dihydrochloride]",+ + +,< 25,,
"CC(C)(C[C@H]1CC[C@H](S(N)(=O)=O)CC1)NC[C@H](O)c1cccc(F)c1.Cl [Example 194, (1R,4r)-4-(2-(((R)-2-(3-Fluorophenyl)-2-hydroxyethyl)amino)-2-methylpropyl)cyclohexane-1-sulfonamide hydrochloride]",+ + +,< 25,,
"CC(C)(C[C@H]1CC[C@H](S(N)(=O)=O)CC1)NC[C@H](O)c1cncc(F)c1 [Example 195, (1R,4r)-4-(2-(((R)-2-(5-Fluoropyridin-3-yl)-2-hydroxyethyl)amino)-2-methylpropyl)cyclohexane-1-sulfonamide dihydrochloride]",+ + +,< 25,,
"CC(C)(C[C@H]1CC[C@@H](S(N)(=O)=O)CC1)NC[C@H](O)c1cccc(F)c1.Cl [Example 196, (1S,4s)-4-(2-(((R)-2-(3-Fluorophenyl)-2-hydroxyethyl)amino)-2-methylpropyl)cyclohexane-1-sulfonamide hydrochloride]",+ + +,< 25,,
"CC(C)(C[C@H]1CC[C@@H](S(N)(=O)=O)CC1)NC[C@H](O)c1cncc(F)c1 [Example 197, (1S,4s)-4-(2-(((R)-2-(5-Fluoropyridin-3-yl)-2-hydroxyethyl)amino)-2-methylpropyl)cyclohexane-1-sulfonamide dihydrochloride]",+ + +,< 25,,
"CCCS(=O)(=O)N[C@H]1CC[C@@H](CC(C)(C)NC[C@H](O)c2cncc(F)c2)CC1 [Example 198, N-((1S,4s)-4-(2-(((R)-2-(5-Fluoropyridin-3-yl)-2-hydroxyethyl)amino)-2-methylpropyl)cyclohexyl)propane-1-sulfonamide]",+ + +,< 25,,
"CC(C)(C[C@H]1CC[C@@H](NS(=O)(=O)C(F)(F)F)CC1)NC[C@H](O)c1cncc(F)c1 [Example 199, 1,1,1-Trifluoro-N-((1S,4s)-4-(2-(((R)-2-(5-fluoropyridin-3-yl)-2-hydroxy-ethyl)amino)-2-methylpropyl)cyclohexyl)methanesulfonamide dihydrochloride]",+ + +,< 25,,
